Data published in PubChem BioAssay (NCI).
Several values for one entry are separate records, joined by “and”; a condition that tells them apart may be missing. Equal entries are not always repeated.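 Assay format: 96-well plates, 48-hour exposure. Here, GI50 denotes the concentration required for 50% inhibition of growth. TGI marks complete inhibition of growth.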

Legend:
Experiment in all cases: DTP human tumour cell line panel, 48 h
SF-268 CNS = test system: SF-268 CNS
HT29 colon = test system: HT29 colon
CCRF-CEM leukemia = test system: CCRF-CEM leukemia
UACC-62 melanoma = test system: UACC-62 melanoma
OVCAR-3 ovarian = test system: OVCAR-3 ovarian
NCI-H226 lung = test system: NCI-H226 lung
RXF 393 renal = test system: RXF 393 renal
MCF7 breast = test system: MCF7 breast
OVCAR-4 ovarian = test system: OVCAR-4 ovarian
T-47D breast = test system: T-47D breast
OVCAR-8 ovarian = test system: OVCAR-8 ovarian
A498 renal = test system: A498 renal
MALME-3M melanoma = test system: MALME-3M melanoma
SF-295 CNS = test system: SF-295 CNS
TK-10 renal = test system: TK-10 renal
HCC-2998 colon = test system: HCC-2998 colon
KM12 colon = test system: KM12 colon
LOX IMVI melanoma = test system: LOX IMVI melanoma
NCI/ADR-RES ovarian = test system: NCI/ADR-RES ovarian
SK-OV-3 ovarian = test system: SK-OV-3 ovarian
MOLT-4 leukemia = test system: MOLT-4 leukemia
K-562 leukemia = test system: K-562 leukemia
NCI-H23 lung = test system: NCI-H23 lung
OVCAR-5 ovarian = test system: OVCAR-5 ovarian
CAKI-1 renal = test system: CAKI-1 renal
A549 NSCLC = test system: A549 NSCLC
ACHN renal = test system: ACHN renal
BT-549 breast = test system: BT-549 breast
HOP-92 NSCLC = test system: HOP-92 NSCLC
SR leukemia = test system: SR leukemia
M14 melanoma = test system: M14 melanoma
MDA-N = test system: MDA-N
MDA-MB-435 = test system: MDA-MB-435
SK-MEL-28 melanoma = test system: SK-MEL-28 melanoma
NCI-H460 lung = test system: NCI-H460 lung
SNB-75 CNS = test system: SNB-75 CNS
EKVX NSCLC = test system: EKVX NSCLC
786-0 renal = test system: 786-0 renal
RPMI-8226 leukemia = test system: RPMI-8226 leukemia
UACC-257 melanoma = test system: UACC-257 melanoma
SK-MEL-5 melanoma = test system: SK-MEL-5 melanoma
SNB-19 CNS = test system: SNB-19 CNS
HCT-15 colon = test system: HCT-15 colon
NCI-H522 lung = test system: NCI-H522 lung
HOP-62 NSCLC = test system: HOP-62 NSCLC
IGROV1 ovarian = test system: IGROV1 ovarian
U251 CNS = test system: U251 CNS
SK-MEL-2 melanoma = test system: SK-MEL-2 melanoma
PC-3 prostate = test system: PC-3 prostate
HCT-116 colon = test system: HCT-116 colon
MDA-MB-231 breast = test system: MDA-MB-231 breast
DU-145 prostate = test system: DU-145 prostate
COLO 205 colon = test system: COLO 205 colon
SN12C renal = test system: SN12C renal
UO-31 renal = test system: UO-31 renal
SW-620 colon = test system: SW-620 colon
HL-60(TB) leukemia = test system: HL-60(TB) leukemia
HS 578T breast = test system: HS 578T breast
SF-539 CNS = test system: SF-539 CNS

`CC(C)=CCC/C(C)=C/CC/C(C)=C/CSc1ccccc1C(=O)O` was tested, and the GI50 (SF-268 CNS) was 18.5 µM, the TGI (SF-268 CNS) was 35.7 µM and 32.6 µM and the GI50 (HT29 colon) was 33.5 µM. For the same compound, the TGI (HT29 colon) was > 78.5 µM and 38.1 µM, the GI50 (CCRF-CEM leukemia) was 32.3 µM and the TGI (CCRF-CEM leukemia) was > 100 µM and 74.2 µM. The TGI (UACC-62 melanoma) was 35 µM and 34 µM, the TGI (OVCAR-3 ovarian) was 33.8 µM and 30.9 µM and the GI50 (NCI-H226 lung) was 19.9 µM. The TGI (NCI-H226 lung) was 46.2 µM and 44.1 µM, the GI50 (RXF 393 renal) was 22.2 µM and the TGI (RXF 393 renal) was 52.3 µM and 56 µM. For the same compound, the GI50 (MCF7 breast) was 33.5 µM, the TGI (MCF7 breast) was 99.1 µM and 56 µM and the GI50 (OVCAR-4 ovarian) was 31.5 µM. For the same compound, the TGI (OVCAR-4 ovarian) was over 100 µM, the GI50 (T-47D breast) was 33.6 µM and the TGI (T-47D breast) was over 91.3 µM. The GI50 (OVCAR-8 ovarian) was 23.9 µM, the TGI (OVCAR-8 ovarian) was > 65.5 µM and 36.6 µM and the GI50 (A498 renal) was 21.3 µM. The TGI (A498 renal) was 54.6 µM and 56.7 µM, the GI50 (MALME-3M melanoma) was 25.6 µM and the TGI (MALME-3M melanoma) was 66.2 µM. For the same compound, the GI50 (SF-295 CNS) was 25.2 µM, the TGI (SF-295 CNS) was 60.7 µM and 40 µM and the GI50 (TK-10 renal) was 36.4 µM. The TGI (TK-10 renal) was > 92.3 µM and 99.1 µM, the GI50 (HCC-2998 colon) was 28.9 µM and the TGI (HCC-2998 colon) was 92.4 µM and 33.6 µM. For the same compound, the TGI (KM12 colon) was 35.8 µM and 33.5 µM, the GI50 (LOX IMVI melanoma) was 26.6 µM and the TGI (LOX IMVI melanoma) was > 68.5 µM and 35.4 µM. The GI50 (NCI/ADR-RES ovarian) was 34.5 µM, the TGI (NCI/ADR-RES ovarian) was > 100 µM and 47.3 µM and the GI50 (SK-OV-3 ovarian) was 37.6 µM. For the same compound, the TGI (SK-OV-3 ovarian) was > 100 µM and 62.8 µM, the TGI (MOLT-4 leukemia) was 48.9 µM and 57.7 µM and the GI50 (K-562 leukemia) was 26.2 µM. For the same compound, the TGI (K-562 leukemia) was over 100 µM, the GI50 (NCI-H23 lung) was 23.6 µM and the TGI (NCI-H23 lung) was 61.4 µM and 36.3 µM. The GI50 (OVCAR-5 ovarian) was 23.1 µM, the TGI (OVCAR-5 ovarian) was 62.6 µM and 36.3 µM and the GI50 (CAKI-1 renal) was 28.1 µM. For the same compound, the TGI (CAKI-1 renal) was 71.6 µM and 38.3 µM, the GI50 (A549 NSCLC) was 28.9 µM and the TGI (A549 NSCLC) was > 89.4 µM and 43.3 µM. The TGI (ACHN renal) was over 100 µM, the GI50 (BT-549 breast) was 19.4 µM and the TGI (BT-549 breast) was 40.4 µM and 32.2 µM. The GI50 (HOP-92 NSCLC) was 19.3 µM, the TGI (HOP-92 NSCLC) was 57.1 µM and 59.7 µM and the GI50 (SR leukemia) was 22.5 µM. The TGI (SR leukemia) was 59.1 µM, the GI50 (M14 melanoma) was 25.6 µM and the TGI (M14 melanoma) was > 95 µM and 40.6 µM. For the same compound, the TGI (MDA-N) was 57.8 µM, the GI50 (MDA-MB-435) was 27.4 µM and the TGI (MDA-MB-435) was 73.6 µM and 55.5 µM. The GI50 (SK-MEL-28 melanoma) was 25.7 µM, the TGI (SK-MEL-28 melanoma) was 62 µM and 54.3 µM and the GI50 (NCI-H460 lung) was 20.9 µM. The TGI (NCI-H460 lung) was 42 µM and 33.1 µM, the GI50 (SNB-75 CNS) was over 66.4 µM and the TGI (SNB-75 CNS) was > 100 µM and 42.1 µM. The GI50 (EKVX NSCLC) was 29.8 µM, the TGI (EKVX NSCLC) was > 84.9 µM and 45.1 µM and the GI50 (786-0 renal) was 23.1 µM. The TGI (786-0 renal) was 78.9 µM and 32.1 µM, the GI50 (RPMI-8226 leukemia) was 25.2 µM and the TGI (RPMI-8226 leukemia) was 73.1 µM and 81.4 µM. For the same compound, the GI50 (UACC-257 melanoma) was 30.5 µM, the TGI (UACC-257 melanoma) was over 100 µM and the GI50 (SK-MEL-5 melanoma) was 19.6 µM. The TGI (SK-MEL-5 melanoma) was 41.5 µM and 29.5 µM, the GI50 (SNB-19 CNS) was 39.7 µM and the TGI (SNB-19 CNS) was > 100 µM and 41.1 µM. For the same compound, the GI50 (HCT-15 colon) was 28.6 µM, the TGI (HCT-15 colon) was > 100 µM and 32 µM and the GI50 (NCI-H522 lung) was 21.6 µM. The TGI (NCI-H522 lung) was 52 µM, the TGI (HOP-62 NSCLC) was 35.2 µM and 30.6 µM and the GI50 (IGROV1 ovarian) was 29.3 µM. For the same compound, the TGI (IGROV1 ovarian) was 70.5 µM and 35.5 µM, the GI50 (U251 CNS) was 23.4 µM and the TGI (U251 CNS) was 59.9 µM and 44.5 µM. For the same compound, the GI50 (SK-MEL-2 melanoma) was 22.6 µM, the TGI (SK-MEL-2 melanoma) was 45.4 µM and 29.4 µM and the GI50 (PC-3 prostate) was 27 µM. For the same compound, the TGI (PC-3 prostate) was > 59.3 µM and 34.1 µM, the TGI (HCT-116 colon) was 56.7 µM and 30.4 µM and the GI50 (MDA-MB-231 breast) was 28.3 µM. For the same compound, the TGI (MDA-MB-231 breast) was 61.7 µM and 55.8 µM, the GI50 (DU-145 prostate) was 24.6 µM and the TGI (DU-145 prostate) was 55.1 µM and 33.5 µM. The GI50 (COLO 205 colon) was 36.8 µM, the TGI (COLO 205 colon) was > 100 µM and 48.4 µM and the TGI (SN12C renal) was 56.4 µM and 51.9 µM. The GI50 (UO-31 renal) was 17.7 µM, the TGI (UO-31 renal) was 37.1 µM and the GI50 (SW-620 colon) was 20.1 µM. For the same compound, the TGI (SW-620 colon) was 42.5 µM and > 100 µM, the GI50 (HL-60(TB) leukemia) was 18.6 µM and the TGI (HL-60(TB) leukemia) was 41.4 µM and 67.1 µM. The GI50 (HS 578T breast) was 33 µM, the TGI (HS 578T breast) was > 100 µM and 44.5 µM and the GI50 (SF-539 CNS) was 19.9 µM. The TGI (SF-539 CNS) was 42.2 µM and 33.9 µM.
